The NIST ThermoML archive (doi:10.1016/j.jct.2015.02.019)

Columns and labels:
[1] = refractive index (Na D-line) (dimensionless); conditions: 298.15 K; 101.33 kPa; Liquid; Standard Abbe refractometry
[2] = 298.15 K; 100 kPa; Liquid; Vibrating tube method
[3] = xn = mol fraction of the nth substance listed; conditions: 298.15 K, 100 kPa, Liquid, Vibrating tube method
[4] = excess molar enthalpy (molar enthalpy of mixing); xn = mol fraction of the nth substance listed; conditions: 298.15 K, 100 kPa, Liquid, Calvet calorimetry

CO [methanol]
Conditions	mass density [kg/m3]	refractive index
[1]	–	1.3261
[2]	786.4	–

CO [methanol] + CCCCC(=O)OC
Conditions	mass density [kg/m3]
[3], x2 = 0	786.4

CCCCC(=O)OC [methyl pentanoate] + CO
Conditions	excess molar enthalpy [kcal/mol]	mass density [kg/m3]
[3], x1 = 0.0235	–	793.56
[3], x1 = 0.062	–	803.85
[3], x1 = 0.0741	–	806.78
[3], x1 = 0.1314	–	818.95
[3], x1 = 0.1512	–	822.61
[3], x1 = 0.2017	–	830.95
[3], x1 = 0.248	–	837.51
[3], x1 = 0.304	–	844.36
[3], x1 = 0.3501	–	849.28
[3], x1 = 0.4499	–	858.16
[3], x1 = 0.5121	–	862.75
[3], x1 = 0.6073	–	868.69
[3], x1 = 0.6865	–	872.86
[3], x1 = 0.7472	–	875.67
[3], x1 = 0.7884	–	877.42
[3], x1 = 0.7982	–	877.81
[3], x1 = 0.8786	–	880.85
[3], x1 = 0.963	–	883.66
[3], x1 = 1	–	884.78
[4], x1 = 0.0244	0.0198	–
[4], x1 = 0.0512	0.0404	–
[4], x1 = 0.0839	0.0662	–
[4], x1 = 0.1195	0.0915	–
[4], x1 = 0.1562	0.116	–
[4], x1 = 0.192	0.138	–
[4], x1 = 0.2279	0.159	–
[4], x1 = 0.264	0.176	–
[4], x1 = 0.2993	0.196	–
[4], x1 = 0.3336	0.209	–
[4], x1 = 0.367	0.22	–
[4], x1 = 0.3861	0.226	–
[4], x1 = 0.4156	0.237	–
[4], x1 = 0.4625	0.252	–
[4], x1 = 0.5081	0.261	–
[4], x1 = 0.5867	0.262	–
[4], x1 = 0.6887	0.24	–
[4], x1 = 0.7931	0.194	–
[4], x1 = 0.8868	0.127	–
[4], x1 = 0.957	0.0574	–

CCCCC(=O)OC [methyl pentanoate] + COC=O
Conditions	excess molar enthalpy [kcal/mol]	mass density [kg/m3]
[3], x1 = 0.0555	–	956.19
[3], x1 = 0.104	–	948.47
[3], x1 = 0.1464	–	942.39
[3], x1 = 0.2093	–	934.27
[3], x1 = 0.2537	–	929.22
[3], x1 = 0.3106	–	923.46
[3], x1 = 0.3493	–	919.84
[3], x1 = 0.4011	–	915.46
[3], x1 = 0.4572	–	911.17
[3], x1 = 0.5	–	908.17
[3], x1 = 0.5539	–	904.69
[3], x1 = 0.6081	–	901.55
[3], x1 = 0.6522	–	899.15
[3], x1 = 0.7258	–	895.5
[3], x1 = 0.7765	–	893.24
[3], x1 = 0.836	–	890.8
[3], x1 = 0.9031	–	888.23
[3], x1 = 1	–	884.78
[4], x1 = 0.0272	0.0141	–
[4], x1 = 0.0583	0.0268	–
[4], x1 = 0.0932	0.0409	–
[4], x1 = 0.1292	0.055	–
[4], x1 = 0.172	0.0696	–
[4], x1 = 0.2104	0.0813	–
[4], x1 = 0.2533	0.0906	–
[4], x1 = 0.2946	0.0958	–
[4], x1 = 0.3096	0.0987	–
[4], x1 = 0.3486	0.101	–
[4], x1 = 0.3982	0.103	–
[4], x1 = 0.4522	0.103	–
[4], x1 = 0.5232	0.0978	–
[4], x1 = 0.6056	0.0875	–
[4], x1 = 0.6943	0.0727	–
[4], x1 = 0.7968	0.0523	–
[4], x1 = 0.8656	0.0347	–
[4], x1 = 0.93	0.0201	–

CO [methanol] + COC=O
Conditions	mass density [kg/m3]
[3], x2 = 0	786.4

COC=O [methyl methanoate] + CCCCC(=O)OC
Conditions	mass density [kg/m3]
[3], x2 = 0	966.28

COC=O [methyl methanoate] + CO
Conditions	excess molar enthalpy, [4] [kcal/mol]	mass density, [3] [kg/m3]
x1 = 0.02	0.0179	–
x1 = 0.0337	–	795.73
x1 = 0.0487	0.0428	–
x1 = 0.0833	0.0743	808.8
x1 = 0.1225	0.105	–
x1 = 0.1557	–	826.74
x1 = 0.167	0.138	–
x1 = 0.19	–	834.77
x1 = 0.2135	0.168	–
x1 = 0.2499	–	848.14
x1 = 0.2613	0.195	–
x1 = 0.3086	0.218	–
x1 = 0.3219	–	863.26
x1 = 0.3501	0.236	–
x1 = 0.3644	0.241	–
x1 = 0.3906	–	876.73
x1 = 0.3943	0.252	–
x1 = 0.4077	0.257	–
x1 = 0.4572	0.27	–
x1 = 0.4946	–	895.61
x1 = 0.5127	0.282	–
x1 = 0.5416	–	903.58
x1 = 0.5783	0.286	–
x1 = 0.646	0.282	–
x1 = 0.6467	–	920.31
x1 = 0.7178	0.264	–
x1 = 0.7271	–	932.1
x1 = 0.7815	–	939.62
x1 = 0.7842	0.235	–
x1 = 0.8517	0.193	–
x1 = 0.8533	–	949.01
x1 = 0.8968	–	954.39
x1 = 0.9098	0.14	–
x1 = 0.9357	–	959.02
x1 = 0.9505	0.081	–
x1 = 1	–	966.28

CCCCC(=O)OC [methyl pentanoate]
Conditions	mass density [kg/m3]	refractive index
[1]	–	1.3952
[2]	884.78	–

COC=O [methyl methanoate]
Conditions	mass density [kg/m3]	refractive index
[1]	–	1.3411
[2]	966.28	–
